Measured values: patent publication US6362369B1, “Phthalic acid diamide derivatives fluorine-containing aniline compounds as starting material, agricultural and horticultural insecticides, and a method for application of the insecticides” (Nihon Nohyaku Co., Ltd., priority 1997, dated 2002)

Tests used:
Type in all cases: in vivo
[1] = test system: rice leafroller (Cnaphalocrocis medinalis); experiment: Insecticidal effect on rice leafroller (Test Example 3); conditions: 500 ppm, rice lamina dip, third-instar larvae of rice leafroller, 4 days after inoculation, 25° C., humidity 70%
Method in brief: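 Insecticidal effect is judged by a predefined criterion from dead/alive counts four days after infesting air-dried lamina with third-instar larvae, kept on moistened filter paper at 25° C, 70% humidity.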

[2] = test system: diamondback moth (Plutella xylostella); experiment: Insecticidal effect on diamondback moth (Test Example 1); conditions: diamondback moth; judged by the criterion of Test Example 1
Method in brief: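 Triplicate groups of 10 insects: eggs laid on Chinese cabbage seedling by adults, seedling immersed then air-dried, kept at 25° C. Day-6 hatch counts gave mortality, rated by criterion.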

[3] = test system: common cutworm (Spodoptera Litura); experiment: Insecticidal effect on common cutworm (Test Example 2); conditions: 500 ppm, cabbage leaf dip, second-instar larvae of common cutworm, 8 days after inoculation, 25° C.
Method in brief: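 After the treated material air-dries, it goes into a dish, second-instar larvae are added, and the dish is closed. Incubation runs at 25° C. On day eight, dead and living larvae are scored, and the calculated mortality is rated on an effect scale.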

Q: For `CC(C)(C)NC(=O)c1c(I)cccc1C(=O)Nc1ccc(C(F)(C(F)(F)F)C(F)(F)F)cc1Cl` [compound 1723], which “Insecticidal effect (Test Example 3), judged from mortality” value [1] is on record?
A: A (100)

Q: What about the “Insecticidal effect (Test Example 1), judged from mortality” value [2] of the same molecule?
A: A (100)

Q: And the “Insecticidal effect (Test Example 2), judged from mortality” value [3]?
A: A (100)

Q: Which results are given for `CC(C)NC(=O)c1c(I)cccc1C(=O)Nc1ccc2c(c1Cl)OC(F)C(F)(F)O2` (stereo not drawn) [compound 1733]?
A: Insecticidal effect (Test Example 3), judged from mortality [1]: A (100); Insecticidal effect (Test Example 1), judged from mortality [2]: A (100); Insecticidal effect (Test Example 2), judged from mortality [3]: A (100)

Q: For `CON=C(C)c1ccc(NC(=O)c2cccc(I)c2C(=O)NC(C)C)cc1` [compound 1737], which “Insecticidal effect (Test Example 3), judged from mortality” value [1] is on record?
A: A (100)

Q: What about the “Insecticidal effect (Test Example 1), judged from mortality” value [2] of the same molecule?
A: A (100)

Q: What about the “Insecticidal effect (Test Example 2), judged from mortality” value [3] of the same molecule?
A: C (89-80)

Q: `CC(C)(C)NC(=O)c1c(I)cccc1C(=O)Nc1ccc(Cl)c2c1OC(F)(F)O2` [compound 1747] was tested. Which “Insecticidal effect (Test Example 3), judged from mortality” value [1] did it give?
A: A (100)

Q: What about the “Insecticidal effect (Test Example 1), judged from mortality” value [2] of the same molecule?
A: A (100)

Q: And the “Insecticidal effect (Test Example 2), judged from mortality” value [3]?
A: C (89-80)

Q: Which “Insecticidal effect (Test Example 3), judged from mortality” value [1] does the source give for `CC(C)NC(=O)c1c(I)cccc1C(=O)Nc1ccc2nc(C(C)C)sc2c1` [compound 1764] here?
A: A (100)

Q: What about the “Insecticidal effect (Test Example 1), judged from mortality” value [2] of the same molecule?
A: A (100)

Q: What about the “Insecticidal effect (Test Example 2), judged from mortality” value [3] of the same molecule?
A: A (100)

Q: How did the “Insecticidal effect (Test Example 3), judged from mortality” value [1] turn out when `CC(C)NC(=O)c1c(I)cccc1C(=O)Nc1ccc(-c2csc(C(F)(F)F)n2)cc1` [compound 1765] was run?
A: A (100)

Q: And the “Insecticidal effect (Test Example 1), judged from mortality” value [2]?
A: A (100)

Q: And the “Insecticidal effect (Test Example 2), judged from mortality” value [3]?
A: A (100)

Q: With `CSc1cc(NC(=O)c2cccc(I)c2C(=O)NC(C)C)ccc1C(F)(C(F)(F)F)C(F)(F)F` [compound 1766] as the molecule, how does the “Insecticidal effect (Test Example 3), judged from mortality” value [1] read?
A: A (100)

Q: What about the “Insecticidal effect (Test Example 1), judged from mortality” value [2] of the same molecule?
A: A (100)

Q: And the “Insecticidal effect (Test Example 2), judged from mortality” value [3]?
A: A (100)

Q: Which results are given for `Cc1cc(C(F)(C(F)(F)F)C(F)(F)F)ccc1NC(=O)c1cccc(I)c1C(=O)NC(C)c1ccccn1` (stereo not drawn) [compound 1773]?
A: Insecticidal effect (Test Example 3), judged from mortality [1]: A (100); Insecticidal effect (Test Example 1), judged from mortality [2]: A (100); Insecticidal effect (Test Example 2), judged from mortality [3]: A (100)

Q: With `Cc1cc(C(F)(F)C(F)(F)F)ccc1NC(=O)c1cccc(I)c1C(=O)NC(C)c1ccccn1` (stereo not drawn) [compound 1777] as the molecule, how does the “Insecticidal effect (Test Example 3), judged from mortality” value [1] read?
A: A (100)

Q: And the “Insecticidal effect (Test Example 1), judged from mortality” value [2]?
A: A (100)

Q: And the “Insecticidal effect (Test Example 2), judged from mortality” value [3]?
A: A (100)

Q: `Cc1cc(C(F)(C(F)(F)F)C(F)(F)F)ccc1NC(=O)c1cccc(I)c1C(=O)NC(C)c1ccco1` (stereo not drawn) [compound 1799] was tested. Which “Insecticidal effect (Test Example 3), judged from mortality” value [1] did it give?
A: A (100)

Q: What about the “Insecticidal effect (Test Example 1), judged from mortality” value [2] of the same molecule?
A: A (100)

Q: What about the “Insecticidal effect (Test Example 2), judged from mortality” value [3] of the same molecule?
A: A (100)

Q: Which results are given for `Cc1cc(C(F)(C(F)(F)F)C(F)(F)F)ccc1NC(=O)c1cccc(I)c1C(=O)NC(C)c1cccs1` (stereo not drawn) [compound 1800]?
A: Insecticidal effect (Test Example 3), judged from mortality [1]: A (100); Insecticidal effect (Test Example 1), judged from mortality [2]: A (100); Insecticidal effect (Test Example 2), judged from mortality [3]: A (100)

Q: For `Cc1cc(C(F)(F)C(F)(F)F)ccc1NC(=O)c1cccc(C(F)(F)F)c1C(=O)NC(C)C` [compound 1801], which “Insecticidal effect (Test Example 3), judged from mortality” value [1] is on record?
A: A (100)

Q: What about the “Insecticidal effect (Test Example 1), judged from mortality” value [2] of the same molecule?
A: A (100)

Q: What about the “Insecticidal effect (Test Example 2), judged from mortality” value [3] of the same molecule?
A: A (100)

Q: `Cc1cc(C(F)(F)C(F)(F)F)ccc1NC(=O)c1cccc([S+]([O-])C(F)(F)F)c1C(=O)NC(C)C` (stereo not drawn) [compound 1803] was tested. Which “Insecticidal effect (Test Example 3), judged from mortality” value [1] did it give?
A: A (100)

Q: What about the “Insecticidal effect (Test Example 1), judged from mortality” value [2] of the same molecule?
A: A (100)

Q: And the “Insecticidal effect (Test Example 2), judged from mortality” value [3]?
A: A (100)
